Columns and labels:
[1] = biological target: T1, ALDH1A1 (Homo sapiens, UniProt P00352); test: ALDH enzymatic assay, recombinant ALDH1A1; assay type: biochemical; details: 5 μg/ml recombinant enzyme, 10 mM acetaldehyde, 20 μM Alda-341
T1 sequence (P00352 1-501): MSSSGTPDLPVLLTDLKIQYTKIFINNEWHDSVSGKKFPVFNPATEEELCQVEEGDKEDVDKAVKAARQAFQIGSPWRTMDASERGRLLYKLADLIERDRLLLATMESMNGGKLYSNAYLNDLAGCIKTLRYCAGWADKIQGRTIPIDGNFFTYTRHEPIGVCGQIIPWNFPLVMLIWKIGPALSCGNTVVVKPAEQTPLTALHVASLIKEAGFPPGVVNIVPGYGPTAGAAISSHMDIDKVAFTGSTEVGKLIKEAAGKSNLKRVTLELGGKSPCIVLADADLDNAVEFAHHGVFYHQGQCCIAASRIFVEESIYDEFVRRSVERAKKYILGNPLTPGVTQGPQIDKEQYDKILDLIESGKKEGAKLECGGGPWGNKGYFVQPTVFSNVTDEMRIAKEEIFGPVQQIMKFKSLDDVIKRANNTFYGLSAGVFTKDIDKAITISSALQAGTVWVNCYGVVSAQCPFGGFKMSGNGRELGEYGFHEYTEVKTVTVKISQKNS
Experimental: (§1) ALDH enzymatic assay: ALDH1A1, ALDH1A2, 2, 3A1, 3A2, 4A1, 5A1, 7A1 were measured as previously described using 5 μg/ml of recombinant protein (Chen, C. H., Cruz, L. A., and Mochly-Rosen, D. (2015) Pharmacological recruitment of aldehyde dehydrogenase 3A1 (ALDH3A1) to assist ALDH2 in acetaldehyde and ethanol metabolism in vivo. Proceedings of the National Academy of Sciences of the United States of America 112, 3074-3079). […] Assays were conducted in 50 mM NaPPi buffer (pH 7.4) in the presence of 2.5 mM NAD^+ and 10 mM substrate and measured in triplicate at 25° C. Dose response curve fits and EC50's were calculated using GraphPad Prism 7 software.

[2] = biological target: T2, ALDH1A2 (Homo sapiens, UniProt O94788); test: ALDH fluorescence-coupled enzymatic assay, all-trans-retinal substrate, ALDH1A2; assay type: biochemical
T2 sequence (O94788 1-518): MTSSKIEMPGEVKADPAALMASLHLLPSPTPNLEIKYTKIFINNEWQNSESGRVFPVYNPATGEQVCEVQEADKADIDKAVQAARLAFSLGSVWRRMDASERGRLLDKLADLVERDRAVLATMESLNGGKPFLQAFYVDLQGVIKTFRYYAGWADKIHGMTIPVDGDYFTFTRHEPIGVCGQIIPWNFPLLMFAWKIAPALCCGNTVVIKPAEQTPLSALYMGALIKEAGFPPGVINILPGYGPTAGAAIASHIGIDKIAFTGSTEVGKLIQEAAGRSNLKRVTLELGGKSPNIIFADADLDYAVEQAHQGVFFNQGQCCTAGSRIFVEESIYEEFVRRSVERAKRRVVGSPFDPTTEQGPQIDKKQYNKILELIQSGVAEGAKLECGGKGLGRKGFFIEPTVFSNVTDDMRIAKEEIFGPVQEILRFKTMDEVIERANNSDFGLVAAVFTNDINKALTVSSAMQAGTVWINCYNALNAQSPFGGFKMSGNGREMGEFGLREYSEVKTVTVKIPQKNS
Experimental: Assay conditions were modified from the original enzyme assay protocol above using 50 mM NaPPi buffer (pH 7.4), 2.5 mM NAD^+, 10 mM acetaldehyde or all-trans-retinal substrate with the addition of 1 U/mL diaphorase and 0.1 mM resazurin for the secondary reaction. Measurements were collected in triplicate at 25° C.

[3] = biological target: ALDH3A2 (Homo sapiens, UniProt P51648); test: ALDH enzymatic assay, recombinant ALDH3A2; assay type: biochemical; details: 5 μg/ml recombinant enzyme, 10 mM acetaldehyde, 20 μM Alda-341
Experimental: as §1

[4] = tested on: Human salivary cells; test: Salisphere formation assay, human; assay type: cell-based; details: 25 μM Alda-341; cells from normal salivary gland tissue of head and neck cancer patients
Experimental: Salisphere formation assay: Cells isolated from mouse submandibular glands (SMG) were FACS sorted using cell surface markers EpCAM and CD24 as previously described and seeded on matrigel (BD Biosciences, BD356235). Cells were grown in DMEM/F12+GlutaMax (Gibco, 10565-018) media containing 10% FBS, 1× anti-anti, 1% N2 supplement (Gibco), 20 ng/mL […] (Sigma-Aldrich), 20 ng/mL fibroblast growth factor-2 (Sigma-Aldrich), 10 μg/mL insulin (Sigma-Aldrich), 1 μM dexamethasone (Sigma-Aldrich), 10 μM […] (Stem Cell Technologies). Spheres were passaged every 7 days by dissociating into single cells by incubating in 1 mg/mL dispase (BD Biosciences) for 20 minutes and 0.25% trypsin-EDTA for 20 minutes. Spheres were grown for 7 days and imaged with a BZ-X710 Keyence microscope using the z-stack function. Images were stitched together into a single image and analyzed using ImageJ (NIH) to quantify sphere number and area. Experiments were repeated at least 3 independent times.
Sphere number per well quantified by Image J (NIH). 4 replicates per group.
Salivary gland tissue dissociation: Mouse and human salivary gland cells were isolated as previously described in, Szlavik, V., Szabo, B., Vicsek, T., Barabas, J., Bogdan, S., Gresz, V., Varga, G., O'Connell, B., and Vag, J. (2008) Differentiation of primary human submandibular gland cells cultured on basement membrane extract. […]

ALDH3A2, sequence (P51648 whole entry): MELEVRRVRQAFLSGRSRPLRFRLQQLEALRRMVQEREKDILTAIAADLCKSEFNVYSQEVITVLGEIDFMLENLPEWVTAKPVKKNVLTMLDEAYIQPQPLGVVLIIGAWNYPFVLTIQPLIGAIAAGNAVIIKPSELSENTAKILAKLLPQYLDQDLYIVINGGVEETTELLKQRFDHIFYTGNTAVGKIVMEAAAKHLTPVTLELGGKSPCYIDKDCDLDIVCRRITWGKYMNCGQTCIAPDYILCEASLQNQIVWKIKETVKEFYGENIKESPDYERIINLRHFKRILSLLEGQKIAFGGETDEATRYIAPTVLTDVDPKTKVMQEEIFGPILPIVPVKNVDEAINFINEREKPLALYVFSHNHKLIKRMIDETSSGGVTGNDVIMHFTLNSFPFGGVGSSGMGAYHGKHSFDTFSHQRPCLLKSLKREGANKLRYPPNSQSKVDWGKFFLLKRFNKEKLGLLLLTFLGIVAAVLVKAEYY

## C=C(C)[C@H]1CC=C(C)CC1 [Alda-341, D-limonene]
[1]
  catalytic activity of ALDH1A1: did not increase
[2]
  catalytic activity of all trans-retinal in ALDH1A2: did not increase
[3]
  catalytic activity of ALDH3A2: did not increase
[4]
  more salispheres than untreated cells: about 30%

Reference: patent US20190060249A1 (priority 2017, published 2019)
